The values below come from US12581252B2, “Substituted pyrrolo[3,4-b]pyridines as PI3K-α inhibitors” (Relay Therapeutics, Inc., priority 2020, dated 2026).

Bounds are passed on as bounds.

The assay deals with H1047R PIK3CA enzyme (Homo sapiens, UniProt P42336, H1047R). Nature of the assay: ADP-Glo Biochemical PIK3CA Kinase Assay. On the technique in general: In ADP-Glo the light output rises with the ADP produced.
H1047R PIK3CA enzyme, sequence (P42336 whole entry H1047R): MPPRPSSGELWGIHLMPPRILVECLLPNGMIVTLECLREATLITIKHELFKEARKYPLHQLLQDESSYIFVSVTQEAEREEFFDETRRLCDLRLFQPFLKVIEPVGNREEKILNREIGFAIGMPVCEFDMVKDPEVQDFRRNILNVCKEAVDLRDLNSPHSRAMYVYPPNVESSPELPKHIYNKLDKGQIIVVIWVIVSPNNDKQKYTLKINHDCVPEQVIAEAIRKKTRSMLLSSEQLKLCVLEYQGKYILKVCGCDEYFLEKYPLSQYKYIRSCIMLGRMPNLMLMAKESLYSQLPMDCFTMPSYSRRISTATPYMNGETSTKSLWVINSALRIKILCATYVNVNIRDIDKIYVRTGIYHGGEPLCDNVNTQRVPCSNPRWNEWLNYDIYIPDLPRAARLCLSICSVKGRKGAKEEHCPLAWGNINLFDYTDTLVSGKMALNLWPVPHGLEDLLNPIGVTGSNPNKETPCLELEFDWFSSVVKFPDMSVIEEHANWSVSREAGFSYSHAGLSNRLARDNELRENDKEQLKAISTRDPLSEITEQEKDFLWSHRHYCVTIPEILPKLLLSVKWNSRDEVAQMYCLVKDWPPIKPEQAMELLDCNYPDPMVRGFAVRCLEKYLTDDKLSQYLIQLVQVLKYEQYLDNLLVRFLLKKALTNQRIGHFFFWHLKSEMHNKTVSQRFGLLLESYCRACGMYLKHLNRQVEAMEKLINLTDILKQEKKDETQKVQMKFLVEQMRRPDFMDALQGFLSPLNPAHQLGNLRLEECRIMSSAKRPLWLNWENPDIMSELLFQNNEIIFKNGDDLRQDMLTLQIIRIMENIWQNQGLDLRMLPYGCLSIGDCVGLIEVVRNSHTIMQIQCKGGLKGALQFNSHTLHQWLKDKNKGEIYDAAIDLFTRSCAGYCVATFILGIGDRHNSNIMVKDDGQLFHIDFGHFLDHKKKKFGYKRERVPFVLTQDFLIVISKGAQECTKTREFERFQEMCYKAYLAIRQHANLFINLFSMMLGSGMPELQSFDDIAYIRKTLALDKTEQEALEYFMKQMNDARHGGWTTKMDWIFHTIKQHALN
H1047R PIK3CA enzyme, sequence (P27986 whole entry partner): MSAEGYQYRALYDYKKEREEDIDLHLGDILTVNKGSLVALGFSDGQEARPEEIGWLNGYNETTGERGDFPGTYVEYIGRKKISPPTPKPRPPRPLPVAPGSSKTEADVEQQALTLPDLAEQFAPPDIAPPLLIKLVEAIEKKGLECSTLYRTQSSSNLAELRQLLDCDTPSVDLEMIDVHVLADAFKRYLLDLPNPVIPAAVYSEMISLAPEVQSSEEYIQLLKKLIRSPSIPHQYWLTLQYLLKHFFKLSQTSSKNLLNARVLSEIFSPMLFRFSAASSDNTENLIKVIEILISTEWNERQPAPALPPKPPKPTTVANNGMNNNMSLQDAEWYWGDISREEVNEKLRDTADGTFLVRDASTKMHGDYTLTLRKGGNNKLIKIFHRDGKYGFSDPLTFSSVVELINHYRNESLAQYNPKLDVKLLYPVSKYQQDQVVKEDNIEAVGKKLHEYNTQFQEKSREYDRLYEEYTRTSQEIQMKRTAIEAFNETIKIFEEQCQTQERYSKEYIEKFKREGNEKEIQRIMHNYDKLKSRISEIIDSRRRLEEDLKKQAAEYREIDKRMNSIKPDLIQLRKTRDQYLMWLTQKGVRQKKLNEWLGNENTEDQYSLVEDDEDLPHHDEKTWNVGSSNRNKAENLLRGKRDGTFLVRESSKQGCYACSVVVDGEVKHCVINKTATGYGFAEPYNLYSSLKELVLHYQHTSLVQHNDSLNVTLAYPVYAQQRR
For `O=C(Nc1cc(-c2ncc[nH]2)cc2c1[C@@H](c1cc(F)ccc1Cl)NC2=O)c1cc(F)cc(C(F)(F)F)c1` [Compound I-918], the IC50 fell in the range of 500 to 1000 nM.

For `O=C(Nc1cccc2c1C(c1ccccc1C1CC1)NC2=O)c1cc(F)cc(C(F)(F)F)c1` (stereo not shown) [Compound I-925], the IC50 lay within 100 to 500 nM.

Take `O=C(Nc1cc(-c2n[nH]c3ccncc23)cc2c1C(c1cc(F)ccc1Cl)NC2=O)c1cc(F)cc(C(F)(F)F)c1` (stereo not shown) [Compound I-938]: the IC50 is 100 to 500 nM.

In turn, `O=C(Nc1cccc2c(=O)[nH]n(-c3cccc(Cl)c3)c12)c1cc(F)cc(C(F)(F)F)c1` [Compound I-950] gave an IC50 of 1000 to 10000 nM.

`Cc1cc(F)cc(C(=O)Nc2cc(Br)cc3c2C(c2cc(F)ccc2Cl)NC3=O)c1` (stereo not shown) [Compound I-951] came in with an IC50 of 1000 to 10000 nM.

For the compound `O=C(Nc1cc(Br)cc2c1C(c1cc(F)ccc1Cl)NC2=O)c1ccc(Cl)c(C(F)(F)F)c1` (stereo not shown) [Compound I-952], the IC50 lay within 100 to 500 nM.

`O=C(Cc1c[nH]c2ccccc12)Nc1cc(Br)cc2c1C(c1cc(F)ccc1Cl)NC2=O` (stereo not shown) [Compound I-953]: the IC50 is 10000 to 100000 nM.

With `O=C(O)c1cc(F)cc(C(=O)Nc2cc(Br)cc3c2C(c2cc(F)ccc2Cl)NC3=O)c1` (stereo not shown) [Compound I-954], the IC50 fell in the range of 10000 to 100000 nM.

Turning to `O=C(Cc1n[nH]c2ccccc12)Nc1cc(Br)cc2c1C(c1cc(F)ccc1Cl)NC2=O` (stereo not shown) [Compound I-955], the IC50 lay in the range of 10000 to 100000 nM.

In the case of `O=C1NC(c2cc(F)ccc2Cl)c2c(NC(=O)c3c[nH]c4cccc(Cl)c34)cc(Br)cc21` (stereo not shown) [Compound I-956], the half-maximal inhibitory concentration (IC50) was in the range of 1000 to 10000 nM.

The compound `O=C(Nc1cc(Br)cc2c1C(c1cc(F)ccc1Cl)NC2=O)c1cncc(C(F)(F)F)c1` (stereo not shown) [Compound I-957] yielded an IC50 of 1000 to 10000 nM.

Compound `O=C(Nc1cc(Br)cc2c1C(c1cc(F)ccc1Cl)NC2=O)c1cncc(F)c1` (stereo not shown) [Compound I-958] had an IC50 of 10000 to 100000 nM.

`CC(C)(O)Cc1cc(NC(=O)c2cc(F)cc(Cl)c2)c2c(c1)C(=O)N[C@H]2c1cc(F)ccc1Cl` [Compound I-963] displayed an IC50 of 500 to 1000 nM.

As to `Cc1cc2nccnc2cc1-c1cc(NC(=O)c2cc(F)cc(C(F)(F)F)c2)c2c(c1)C(=O)NC2c1cc(F)ccc1Cl` (stereo not shown) [Compound I-975], the IC50 lay within 100 to 500 nM.

In turn, `COCCOc1cc(NC(=O)c2cc(F)cc(C(F)(F)F)c2)c2c(c1)C(=O)NC2c1cc(F)ccc1Cl` (stereo not shown) [Compound I-977] yielded an IC50 of 100 to 500 nM.

Compound `N#Cc1ncc(-c2cc(NC(=O)c3cc(F)cc(C(F)(F)F)c3)c3c(c2)C(=O)N[C@H]3c2cc(F)ccc2Cl)cn1` [Compound I-979] displayed an IC50 of 100 to 500 nM.

`O=C1NCc2c(NC(=O)N3CCCCC3Cc3ccccc3)cccc21` (stereo not shown) [Compound I-990] yielded a half-maximal inhibitory concentration (IC50) of 10000 to 100000 nM.

The compound `COc1cc(C(=O)Nc2cc(Br)cc3c2C(c2cc(F)ccc2Cl)NC3=O)cc(Cl)c1F` (stereo not shown) [Compound I-991] came in with an IC50 of 100 to 500 nM.

Regarding `O=C1NC(c2cc(F)ccc2Cl)c2c(NC(=O)N3CCCc4ccc(Cl)cc43)cc(Br)cc21` (stereo not shown) [Compound I-992], the IC50 is 1000 to 10000 nM.

The compound `N#Cc1ccc(-c2cc(NC(=O)c3cc(F)cc(C(F)(F)F)c3)c3c(c2)C(=O)N[C@H]3c2cc(F)ccc2Cl)cn1` [Compound I-996] displayed an IC50 of 500 to 1000 nM.

`Cn1ccc2c(F)cc(C(=O)Nc3cc(Br)cc4c3C(c3cc(F)ccc3Cl)NC4=O)cc21` (stereo not shown) [Compound I-1005] gave an IC50 of 1000 to 10000 nM.

Turning to `O=C(Nc1cc(-c2cnc3ncnn3c2)cc2c1[C@@H](c1cc(F)ccc1Cl)NC2=O)c1cc(F)cc(C(F)(F)F)c1` [Compound I-1023], the IC50 lay within 500 to 1000 nM.

Consider `Cn1cnc2ccc(-c3cc(NC(=O)c4cc(F)cc(C(F)(F)F)c4)c4c(c3)C(=O)NC4c3cc(F)ccc3Cl)cc21` (stereo not shown) [Compound I-1027], for which the IC50 was no more than 100 nM.

`O=C1Cc2c(cccc2-c2cc(NC(=O)c3cc(F)cc(C(F)(F)F)c3)c3c(c2)C(=O)NC3c2cc(F)ccc2Cl)N1` (stereo not shown) [Compound I-1034] returned an IC50 of no more than 100 nM.

In the case of `O=C(Nc1cc(-c2ccc3nc[nH]c3c2)cc2c1C(c1cc(F)ccc1Cl)NC2=O)c1cc(F)cc(C(F)(F)F)c1` (stereo not shown) [Compound I-1035], the IC50 was no more than 100 nM.

Regarding `Cc1nc2cc(-c3cc(NC(=O)c4cc(F)cc(C(F)(F)F)c4)c4c(c3)C(=O)NC4c3cc(F)ccc3Cl)ccc2o1` (stereo not shown) [Compound I-1036], the IC50 was no more than 100 nM.

Turning to `O=C(Nc1cc(-c2ccnn2C2COC2)cc2c1C(c1cc(F)ccc1Cl)NC2=O)c1cc(F)cc(C(F)(F)F)c1` (stereo not shown) [Compound I-1037], the IC50 was no more than 100 nM.

For the compound `O=C1Cc2cc(-c3cc(NC(=O)c4cc(F)cc(C(F)(F)F)c4)c4c(c3)C(=O)NC4c3cc(F)ccc3Cl)ccc2N1` (stereo not shown) [Compound I-1041], the IC50 was no more than 100 nM.

For the compound `Cn1c(=O)[nH]c2ccc(-c3cc(NC(=O)c4cc(F)cc(C(F)(F)F)c4)c4c(c3)C(=O)NC4c3cc(F)ccc3Cl)cc21` (stereo not shown) [Compound I-1044], the IC50 was no more than 100 nM.

Turning to `O=C(Nc1cc(-c2cccc3cccnc23)cc2c1C(c1cc(F)ccc1Cl)NC2=O)c1cc(F)cc(C(F)(F)F)c1` (stereo not shown) [Compound I-1045], the IC50 is no more than 100 nM.

Consider `O=C(Nc1ccc(F)cc1C(F)(F)F)Nc1cc(Br)cc2c1C(c1cc(F)ccc1Cl)NC2=O` (stereo not shown) [Compound I-1050], for which the IC50 was in the range of 100 to 500 nM.

In turn, `N#Cc1ccc(C(F)(F)F)c(NC(=O)Nc2cc(Br)cc3c2C(c2cc(F)ccc2Cl)NC3=O)c1` (stereo not shown) [Compound I-1051] registered an IC50 of 1000 to 10000 nM.

The compound `O=C(Nc1cc(Oc2ccncn2)cc2c1C(c1cc(F)ccc1Cl)NC2=O)c1cc(F)cc(C(F)(F)F)c1` (stereo not shown) [Compound I-1052] showed an IC50 of 100 to 500 nM.

The compound `O=C(Nc1cc(-c2ccc3ncnn3c2)cc2c1[C@H](c1cc(Cl)ccc1Cl)NC2=O)c1cc(F)cc(C(F)(F)F)c1` [Compound I-1053] returned an IC50 of 500 to 1000 nM.

The compound `O=C1NC(c2cc(F)ccc2Cl)c2c(Nc3noc4ccccc34)cc(Br)cc21` (stereo not shown) [Compound I-1058] gave an IC50 of 10000 to 100000 nM.

With `O=C(Nc1cc(-c2ccc3ncnn3c2)cc2c1[C@H](c1cc(F)c(F)cc1Cl)NC2=O)c1cc(F)cc(C(F)(F)F)c1` [Compound I-1059], the IC50 was 1000 to 10000 nM.

Regarding `O=C1NC(c2cc(F)ccc2Cl)c2c(Nc3nsc4ccccc34)cc(Br)cc21` (stereo not shown) [Compound I-1060], the IC50 fell in the range of 10000 to 100000 nM.

In the case of `O=C(Nc1cc(-n2cccn2)cc2c1[C@@H](c1cc(F)ccc1Cl)NC2=O)c1cc(F)cc(C(F)(F)F)c1` [Compound I-1070], the half-maximal inhibitory concentration (IC50) fell in the range of 1000 to 10000 nM.

`Cn1ccc(Nc2cc(NC(=O)c3cc(F)cc(C(F)(F)F)c3)c3c(c2)C(=O)N[C@@H]3c2cc(F)ccc2Cl)n1` [Compound I-1072] registered an IC50 of 500 to 1000 nM.

`CC12CC3CC(C)(C1)CC(C(=O)Nc1cccc4c1C(c1cc(F)ccc1Cl)NC4=O)(C3)C2` (stereo not shown) [Compound I-1074] registered an IC50 of 100 to 500 nM.

The compound `O=C(Nc1cc(Oc2ccccn2)cc2c1C(c1cc(F)ccc1Cl)NC2=O)c1cc(F)cc(C(F)(F)F)c1` (stereo not shown) [Compound I-1077] gave an IC50 of 100 to 500 nM.

`O=C(Nc1cc(-c2cn[nH]c2)cc2c1[C@@H](c1cc(F)ccc1Cl)NC2=O)c1cc(F)cc(C(F)(F)F)c1` [Compound I-1079] returned an IC50 of no more than 100 nM.

For `O=C(Nc1cc(-c2cscn2)cc2c1[C@@H](c1cc(F)ccc1Cl)NC2=O)c1cc(F)cc(C(F)(F)F)c1` [Compound I-1085], the IC50 fell in the range of 1000 to 10000 nM.

In the case of `N#CCc1cc(NC(=O)c2cc(F)cc(C(F)(F)F)c2)c2c(c1)C(=O)N[C@@H]2c1cc(F)ccc1Cl` [Compound I-1087], the IC50 fell in the range of 100 to 500 nM.

Compound `Nc1cc(-c2cc(NC(=O)c3cc(F)cc(C(F)(F)F)c3)c3c(c2)C(=O)NC3c2cc(F)ccc2Cl)ncn1` (stereo not shown) [Compound I-1089] yielded an IC50 of no more than 100 nM.

Compound `Nc1nccc(-c2cc(NC(=O)c3cc(F)cc(C(F)(F)F)c3)c3c(c2)C(=O)NC3c2cc(F)ccc2Cl)n1` (stereo not shown) [Compound I-1090] had a half-maximal inhibitory concentration (IC50) of no more than 100 nM.

In turn, `Cc1ncc(-c2cc(NC(=O)c3cc(F)cc(C(F)(F)F)c3)c3c(c2)C(=O)NC3c2cc(F)ccc2Cl)c(C)n1` (stereo not shown) [Compound I-1092] registered an IC50 of 100 to 500 nM.

Compound `O=C(Nc1cc(-c2cncnc2)cc2c1[C@@H](c1cc(F)ccc1Cl)NC2=O)c1cc(F)cc(C(F)(F)F)c1` [Compound I-1094] gave an IC50 of 500 to 1000 nM.

For the compound `CC(C)(O)Cn1cc(-c2cc(NC(=O)c3cc(F)cc(C(F)(F)F)c3)c3c(c2)C(=O)N[C@@H]3c2cc(F)ccc2Cl)cn1` [Compound I-1096], the IC50 is 10000 to 100000 nM.

As to `O=C1NC(c2cc(F)ccc2Cl)c2c(N/C(=N\O)c3cc(F)cc(C(F)(F)F)c3)cccc21` (stereo not shown) [Compound I-1100], the IC50 is no more than 100 nM.

Take `COc1cnc(-c2cc(NC(=O)c3cc(F)cc(C(F)(F)F)c3)c3c(c2)C(=O)NC3c2cc(F)ccc2Cl)cn1` (stereo not shown) [Compound I-1103]: the IC50 was no more than 100 nM.

In turn, `Nc1ncncc1-c1cc(NC(=O)c2cc(F)cc(C(F)(F)F)c2)c2c(c1)C(=O)NC2c1cc(F)ccc1Cl` (stereo not shown) [Compound I-1106] displayed a concentration for half-maximal inhibition (IC50) of no more than 100 nM.

`O=C1N[C@H](c2cc(F)ccc2Cl)c2c(Nc3nccc4c(C(F)(F)F)cc(F)cc34)cc(Br)cc21` [Compound I-1110] showed an IC50 of 1000 to 10000 nM.

Consider `N#CC1(COc2cc(NC(=O)c3cc(F)cc(C(F)(F)F)c3)c3c(c2)C(=O)NC3c2cc(F)ccc2Cl)CC1` (stereo not shown) [Compound I-1113], for which the IC50 was no more than 100 nM.

Take `O=C1NC(c2cc(F)ccc2Cl)c2c(NC(=O)c3cc(C(F)(F)F)cc(F)c3C3(O)COC3)cccc21` (stereo not shown) [Compound I-1114]: the IC50 fell in the range of 1000 to 10000 nM.

`O=C(Nc1cc(Nc2ccno2)cc2c1C(c1cc(F)ccc1Cl)NC2=O)c1cc(F)cc(C(F)(F)F)c1` (stereo not shown) [Compound I-1115] came in with an IC50 of no more than 100 nM.

As for `O=C1NC(c2cc(F)ccc2Cl)c2c(Nc3ncc(C(F)(F)F)cc3F)cc(Br)cc21` (stereo not shown) [Compound I-1118], the IC50 lay in the range of 500 to 1000 nM.

In the case of `O=C(Nc1cc(Br)cc2c1C(c1cc(F)ccc1Cl)NC2=O)c1cc(F)cc(CF)c1` (stereo not shown) [Compound I-1119], the IC50 was in the range of 500 to 1000 nM.

`Cn1cc(Oc2cc(NC(=O)c3cc(F)cc(C(F)(F)F)c3)c3c(c2)C(=O)NC3c2cc(F)ccc2Cl)cn1` (stereo not shown) [Compound I-1120] displayed an IC50 of 1000 to 10000 nM.

Consider `Cc1ncc(-c2cc(NC(=O)c3cc(F)cc(C(F)(F)F)c3)c3c(c2)C(=O)NC3c2cc(F)ccc2Cl)c(N)n1` (stereo not shown) [Compound I-1122], for which the IC50 was no more than 100 nM.

In the case of `N#Cc1cn(-c2cc(NC(=O)c3cc(F)cc(C(F)(F)F)c3)c3c(c2)C(=O)NC3c2cc(F)ccc2Cl)cn1` (stereo not shown) [Compound I-1127], the IC50 is no more than 100 nM.

For orientation: IC50 means the midpoint of a concentration-inhibition curve. The low end stands for inhibition by little substance, the high end for a need for much substance.
